The text below walks through data of patent publication US20090275099A1 (priority 2004, published 2009).

The structures appear in SMILES notation. Entries after “also recorded” stand apart in the source; their conditions may differ. Like-named read-outs stand apart in the source and are kept apart here.

For series [1], the target named is F1F0-ATPase (Homo sapiens, UniProt P05496+P48047). The settings on record: read-out: IC50 for oligomycin; cited from earlier work.
The target in series [2] is T1, mitochondrial F1F0-ATPase (Bos taurus, UniProt P13621+P32876). As to the kind of experiment: biochemical. Details: species or system bovine. The settings on record: for Ki: oligomycin.
The target of series [3] is F1F0-ATPase (Bos taurus, UniProt P13621+P32876). Description: off-rate measurements, recovery of ATP synthesis of SMPs after dilution. The class given is biochemical, bovine. The procedure:
Inhibition of Na,K-ATPases with oligomycin is time-dependent and results from a slow rate of dissociation from the enzyme (0.05 s^−1) (see, e.g., Esmann, M. (1991) Biochim. Biophys. Acta 1064, 31-36; herein incorporated by reference in its entirety). Since time-dependent inhibition can have profound effects on the function of the F1F0-ATPase, the off-rate of Bz-423 and oligomycin during ATP synthesis was examined. […] Inhibited SMP suspensions were diluted into buffer and activity was measured over time. Enzymatic activity of the SMPs incubated with Bz-423 had recovered to 90% of control at 10 s, indicating rapid dissociation (see, FIG. 18). In contrast, the activity of the enzyme incubated with oligomycin was only 54% of the uninhibited activity at 10 s, and increased for several minutes after dilution (see, FIG. 18). The time-dependence of the recovery of activity fit to a single exponential yielding an apparent dissociation rate constant for Bz-423>0.3 s^−1. However, dissociation of oligomycin was complex and a portion of the inhibitor dissociated at least 10-fold slower, consistent with a tight-binding, slow-dissociating inhibitor (see, e.g., Morrison, J. F., and Walsh, C. T. (1988) Adv. Enzymol. Relat. Areas Mol. Biol. 61, 201-301; herein incorporated by reference in its entirety). Presumably, the constraints of a high-affinity inhibitor dissociating from the membrane embedded proton channel presented a significant barrier for dissociation resulting in a slow off-rate.
Off-rate measurements. Rate of inhibition of ATP synthesis was measured as described above with the following changes. A 20 μL aliquot of SMPs (1 mg mL^−1) in synthesis buffer (with 10 mM K2HPO4) was added to each well of a 96-well plate containing 2.5 μL of 100× drug (14 μM Bz-423 and 35 nM oligomycin, final) or DMSO vehicle control. The drug was diluted out by adding 200 μL of synthesis buffer to each well. Substratecoupling mixture (25 μL with 1 mM ADP) was added to each well at the indicated time point and the rate of NADP^+ reduction was monitored over time.

Series [4] deals with Na,K-ATPases. The settings on record: cited from earlier work.
The conditions of series [5]: rodents, two daily doses; cited from earlier work.
Series [6] deals with T1, mitochondrial F1F0-ATPase. Description: biochemical. Details: species or system bovine. The settings on record: for Ki: oligomycin. This is another data set of the same source.
Series [7] concerns Jurkat cells. Description: early O2− (ROS) response, 1 h. The class given is cell-based. The procedure:
(§1) To detect O2^−, cells are incubated with DHE (10 μM) for 30 min at 37° C. and are analyzed by flow cytometry to measure ethidium fluorescence. Flow analysis of mitochondrial transmembrane potential (ψm) is conducted by labeling cells with DiOC6(3) (20 nM) for 15 min at 37 degrees C. A positive control for disruption of ψm is established using carbonyl cyanide m-chlorophenylhydrazone (CCCP, 50 μM). Caspase activation assays are performed with FAM-VAD-fluoromethylketone. Processing of the substrate is evaluated by flow cytometry.
(§2) Since an early mitochondrial superoxide (O2^−) mediates apoptosis induced by Bz-423, the O2^− response of cells 1 h following incubation with drug was examined, as well as cell death at 24 h, as previously described (see, e.g., Blatt, N. B., et al., 2002 J Clin Invest 110, 1123-1132; incorporated herein by reference in its entirety).

Series [8] relates to Jurkat cells. As to the kind of experiment: cell death at 24 h. The class given is cell-based. As to the method: as §2
In series [9] the test system is Ramos B cells. As to the kind of experiment: cell death of Ramos B cells, propidium iodide exclusion by flow cytometry, 24 h. The class given is cell-based, human. The settings on record: Homo sapiens.
Series [10] deals with Ramos cells. As to the kind of experiment: early O2− (ROS) response, 1 h. The format is cell-based, human. The settings on record: Homo sapiens, Ramos, 1 h; read-out: ROS EC50 (μM), Ramos cells. The procedure:
as §1, §2

Series [11] concerns the target T2, F1F0-ATPase, OSCP subunit (UniProt P48047).
T2 sequence (P48047 1-213): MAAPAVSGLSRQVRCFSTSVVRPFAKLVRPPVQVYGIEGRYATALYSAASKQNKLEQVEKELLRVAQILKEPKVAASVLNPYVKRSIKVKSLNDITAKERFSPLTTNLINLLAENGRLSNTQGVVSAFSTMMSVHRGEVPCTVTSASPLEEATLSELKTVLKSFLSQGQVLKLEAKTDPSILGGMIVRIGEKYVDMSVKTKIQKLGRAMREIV
Description: F1F0-ATPase activity in SMPs reconstituted in the presence or absence of the OSCP. The format is biochemical, bovine. Details: not tied in print to the reconstitution assay. The settings on record: FIG. 19C. The procedure: An additional OSCP binding assay was conducted. […] Benzodiazepine derivative compounds that bind the OSCP include, but are not limited to: […]

Where [12] appears, read: synthesis, three-dimensional fit.
[13] abbreviates: hydrolysis, three-dimensional fit.
[14] abbreviates: Jurkat cells, 75 μM PK11195, with or without antioxidant pre-incubation.

For `CC[C@H]1/C=C/C=C/C[C@@H](C)[C@H](O)[C@@](C)(O)C(=O)[C@@H](C)[C@H](O)[C@@H](C)C(=O)[C@@H](C)[C@H](O)[C@@H](C)/C=C/C(=O)O[C@@H]2[C@H](C)[C@H](CC1)O[C@]1(CC[C@H](C)[C@H](C[C@@H](C)O)O1)[C@H]2C` [oligomycin, reference compound], the half-inhibitory concentration (IC50) in series [1] is 0.01 µM. Besides, the Ki turned out to be 0.0105 ± 0.0009 µM in series [2] (Ki (E), synthesis); 0.012 ± 0.001 µM in [2] (Ki (ES), synthesis); 0.011 ± 0.003 µM in series [6] (hydrolysis, read-out: Ki (E)); 0.013 ± 0.001 µM in series [6] (hydrolysis, read-out: Ki (ES)). The Mechanism of inhibition entry is “mixed inhibitor” in series [2] (synthesis) and “noncompetitive inhibitor; also recorded: Non-competitive” in series [6] (hydrolysis). In addition, the results for the “nE, cooperativity factor for competitive inhibition constant” value in series [2] (synthesis) and in series [6] (hydrolysis) were 3.6 ± 0.5 and 1.1 ± 0.3, respectively. The “nES, cooperativity factor for uncompetitive inhibition constant” value in series [2] (synthesis) came to 1.6 ± 0.3; in series [6] (hydrolysis), 1.2 ± 0.1. In addition, the entries for the “K∞” value in series [2] (setting [12]) and in series [6] (setting [13]) were 0.12 ± 0.01 mM and 0.12 ± 0.02 mM, respectively. Also, the values for the Vmax in series [2] (setting [12]) and in series [6] (setting [13]) were 0.089 ± 0.003 µmol/min/mg and 0.77 ± 0.03 µmol/min/mg, respectively. In [3], the “slower dissociation of a portion of the inhibitor” value was “at least 10 fold”. In [3] (1.4 μM Bz-423, 3.5 nM oligomycin), the “reduction of F1F0-ATPase activity at the concentration produced after dilution” value stood at 15%. Also, the “ATP synthesis activity relative to that in the absence of inhibitor” value in series [3] (14 μM Bz-423 or 35 nM oligomycin) is 14%. For the same molecule, the “enzymatic activity recovered after dilution, % of control” value in series [3] (at 10 s after dilution) was 54%. The “rate of dissociation from the enzyme” value in [4] was 0.05 s⁻¹. In addition, the LD50 for oligomycin in series [5] was 0.5 mg/kg.
In the case of `CCC(C)N(C)C(=O)c1cc2ccccc2c(-c2ccccc2Cl)n1` (centres unmarked) [PK11195], the EC50 in series [2] (bovine SMPs, read-out: ATPase activity EC50 (μM), Synthesis) was 33 µM; in [7] (Homo sapiens, Jurkat, 1 h, read-out: ROS EC50 (μM), Jurkat cells), 56 µM; in series [8] (Homo sapiens, Jurkat, 24 h, read-out: Cell death EC50 (μM), Jurkat cells), 75 µM; in series [9] (Ramos, 24 h, read-out: Cell death EC50 (μM), Ramos cells), 90 µM; in series [9] (Ramos B cells, 24 h (Table 6), read-out: EC50 (μM), cell death), greater than 80 µM; in series [10], 100 µM. Moreover, the EC50 in series [6] (bovine SMPs, read-out: ATPase activity EC50 (μM), Hydrolysis) was 230 µM. For the same molecule, in series [7] (setting [14]), the “% ROS+” value came to 67.9 ± 5.0%. Besides, the “% Cell death” value in series [8] (setting [14]) was found to be 85.5 ± 1.7%. Further, the “dependence of F1F0-ATPase inhibition on the OSCP” value in series [11] is on record as “more potent inhibitor of F1F0-ATPase activity in the presence of the OSCP”. For the same molecule, the “inhibition of mitochondrial ATPase activity” value in series [6] (80 μM) is “do not significantly inhibit mitochondrial ATPase activity”.
